The test system of one data set is Mice. As to conditions: cited from earlier work.
Data set [1] has as its system human colon cancer cells (ATCC CCL220). Kind of data set: Cytotoxicity assay (MTS/PMS growth inhibition). Format: cell-based. The following applies: approximately 48 hours with test compound, MTS/PMS readout, concentration not given. The procedure: The antitumor activity against human colon cancer cells of the novel compounds (as earlier reported) was realized by the following procedure which determines the inhibitory effect of test samples on the growth of human colon cancer cells (ATCC CCL220). The CCL220 cells are grown in RPMI 1640 media+10% Fetal bovine serum+1% Antibiotic/Antimycotic for approximately 48 hours at 37° C./5% CO2 in the presence of the test compound.
Growth/Non-Growth of the cells (e.g., cell density) is determined using Promega's MTS/PMS assay system. MTS (3-(4,5-dimethylthiazol-2-yl)-5-(3-carboxymethoxyphenyl)-2-(4-sulfophenyl)-2H-tetrazolium, inner salt) is an aqueous compound that is reduced to soluble formazan by the presence of NADH formed by dehydrogenases present within the CCL220 cells. The absorbance of the formazan can be measured at 490 nm and is directly proportional to the number of living cells present in the culture. PMS (Phenazine Methosulfate) is added an electron coupling reagent and greatly increases the rate of reduction. […]
In order to establish the accuracy of this assay a Positive Control consisting of 50 μM Methotrexate should not decrease the net absorbance to less than 90% of the Negative Control (CCL220 cells are somewhat resistant to methotrexate) is utilized.

The test system of the next data set is white mice. Kind of data set: Animal toxicity bioassay (acute toxicity, intraperitoneal). The class given is in vivo. The following applies: 14 days observation, Litchfield and Wilkinson. The procedure:
Acute toxicity was studied on white mice of both sexes with weight ranging between 18-26 grams under intraperitoneal injection of 2% solution of tested compound in starch (the compound was dissolved in starch slime and injected) on the basis of 0.1 ml of solution per 10 g of the animal weight Each dose was tested on the group of 6 animals that were observed during 14 days period. (This method was approved by the Pharmacology committee of Russian Ministry of Health and has been widely used since 1968.) Averaged lethal dose (LD50) of the compound was computed using results of experiments on 5-7 groups of animals using method of Litchfield and Wilkinson. (Belenkii M. L. “Elements of quantative determination of the pharmacological effect,” Leningrad, 1963, 71 pages).

Data set [2] in a line: Solubility in organic solvents. Format: physicochemical.
A further data set can be described thus: Stability in solution. Format: physicochemical. The following applies: decomposes quickly when solution is heated or stored for a long time, forming OF-12.

Turning to `O=c1[nH]cc(F)c(=O)[nH]1` [5-FU, fluorouracil], the “IPN-Mice LD50” value with Mice is 230 mg/kg.

The LD50 is the dose at which mortality reaches 50%. Low values mean a more toxic substance, high ones a less toxic substance. Turning to `CCOc1ccc(C(Cl)=CC(=NN=C2c3ccccc3-c3ccccc32)C(=O)OC)cc1` [3F-19, 4-Chloro-4-(4-ethoxy-phenyl)-2-(fluoren-9-ylidene-hydrazono)-but-3-enoic acid methyl ester], the “percent activity against human colon cancer” value in data set [1] turned out to be 100%. Also, the LD50 in the data set with white mice was over 200 mg/kg.

Regarding `CCOc1ccc(C(=O)CC(O)(NN=C2c3ccccc3-c3ccccc32)C(=O)OC)cc1` (centres unmarked) [OF-13, 4-(4-Ethoxy-phenyl)-2-(N′-fluoren-9-ylidene-hydrazino)-2-hydroxy-4-oxo-butyric acid methyl ester], in data set [1], the “percent activity against human colon cancer” value is 100%. The LD50 with white mice is recorded as over 1500 mg/kg. For the same molecule, the Solubility entry in data set [2] (DMSO, DMFA, dichloroethane, acetonitrile) is given as “highly soluble”; in data set [2] (hexane) it was “insoluble”. The Stability in solutions entry in “Stability in solution” was “not stable in solutions”.

Source of the values: US6858748B1, “Treatment of colon cancer” (Research Foundation of the University of Central Florida, priority 2001, dated 2005).
